# Test results as given in patent US11096885B2, “Composition for enhancing skin elasticity or improving skin wrinkles comprising ginseng cell lysate” (AMOREPACIFIC CORPORATION, priority 2018, dated 2021).
# Test system: MMP-1
# Assay: MMP-1 ELISA assay: inhibition of MMP-1 production in UVB-irradiated human skin fibroblasts
# Format: cell-based
# Conditions: HS68 cells; for MMP-1 (%): untreated control = 100, UVB group = 463.00
# Description: The MMP-1 ELISA assay was performed to confirm the effect of the composition of Example 1 and Comparative Example 1 on the inhibition of MMP-1 production, which is a skin tissue degrading enzyme, in UVB-irradiated human skin fibroblasts.
# Specifically, HS68 cells, which are human skin fibroblasts, were seeded in a 48-well plate at a concentration of 2×10^4 cells/well, and then cultured in a DMEM medium (WelGene) containing 10% fetal bovine serum (FBS, WelGene) and 1% penicillin/streptomycin under a condition of 37° C. and 5% CO2. Then, the medium was removed and washed with DPBS (Dulbecco's Phosphate-Buffered Saline). Then, the cells from Example 1 and Comparative Example 1 diluted by concentration (125 ppm, 250 ppm, 500 ppm) in a DMEM medium containing no fetal bovine serum (FBS) and pretreated for 6 hours. Then, the medium was removed and was filled with 100 μl of DPBS, and then was irradiated at UVB 30 mJ/cm^2. The cells from Example 1 and Comparative Example 1 were diluted by concentration (250 ppm, 500 ppm) in a DMEM medium containing no fetal bovine serum (FBS), treated and cultured for 48 hours. After collecting the medium of the cultured cells, the amount of MMP-1 secretion was measured using a human MMP-1 ELISA kit (R&D Systems), and the absorbance was measured at 450 nm using an ELISA reader (Infinite M200Pro, Tecan). The cells attached to the bottom of the plate were washed with DPBS, lysed with 1N NaOH, and the amount of protein was measured using a BCA assay (Pierce® BCA protein assay kit, Thermo Scientific). The amount of MMP-1 secretion per certain protein was corrected and expressed as a percentage (%). As a positive control group, 1 μM and 10 μM of retinoic acid (RA) were used. Statistical significance between samples was used by the student's t-test and was analyzed to be statistically significant when the p-value was 0.05 or less (* P<0.05, ** p<0.01, *** p<0.001).
smiles,measurement,setting,value
"CC1=C(/C=C/C(C)=C/C=C/C(C)=C/C(=O)O)C(C)(C)CCC1 [RA, retinoic acid]",reduction of MMP-1 secretion as compared to the UVB irradiation group,"UVB 30 mJ/cm^2, 1 μM",111.06%
same,MMP-1 (%),"UVB 30 mJ/cm^2, 1 μM",351.95 ± 22.95%
same,reduction of MMP-1 secretion as compared to the UVB irradiation group,"UVB 30 mJ/cm^2, 10 μM",239.71%
same,MMP-1 (%),"UVB 30 mJ/cm^2, 10 μM",223.29 ± 114.85%
